Measurements: article PMC9042253 (RSC Advances, 2021)

Assays:
CD38 cyclase = biological target: T1, CD38 cyclase (Homo sapiens, UniProt P28907); experiment: CD38 cyclase activity, fluorometric assay with NGD+ as substrate; type: biochemical; conditions: for remaining activity at 50 µM: read-out: % cyclase activity remaining (50 μM)
T1 sequence (P28907 1-300): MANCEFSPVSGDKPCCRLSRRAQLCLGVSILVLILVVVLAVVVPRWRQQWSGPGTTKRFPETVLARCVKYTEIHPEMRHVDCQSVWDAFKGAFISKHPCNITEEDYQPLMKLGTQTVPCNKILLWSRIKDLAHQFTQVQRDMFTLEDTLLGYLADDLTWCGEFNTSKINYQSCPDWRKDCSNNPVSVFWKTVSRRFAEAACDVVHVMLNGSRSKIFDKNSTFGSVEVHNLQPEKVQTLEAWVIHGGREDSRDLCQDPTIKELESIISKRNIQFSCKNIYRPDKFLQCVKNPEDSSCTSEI

PBMCs = experiment: Cytokine analysis; type: cell-based; conditions: 1.0 μM, 48 hours, activated PBMCs from 3 donors
CD38 hydrolase = biological target: T2, CD38 hydrolase (Homo sapiens, UniProt P28907); experiment: CD38 hydrolase activity, fluorometric assay with ε-NAD+ as substrate; type: biochemical; conditions: hydrolase versus cyclase screen
T2 sequence (P28907 1-300): T1 sequence (P28907 1-300)

SMILES | IC50 (CD38 cyclase) [µM] | remaining activity at 50 µM (CD38 cyclase) [%] | increase in IFNγ (in words) (PBMCs) | selectivity between hydrolase and cyclase activity (in words) (CD38 hydrolase)
COc1cc(/C=C2\SC(=S)NC2=O)cc(OC)c1OC [Compound 39] | 68.6 | 64.1 ± 7.2 | – | –
O=C1NC(=S)S/C1=C\c1ccc(OCc2ccccc2)cc1 [Compound 38] | > 100 | 84.5 ± 8.5 | – | –
O=C1NC(=S)S/C1=C\c1ccc(C(F)(F)F)cc1 [Compound 23] | 4.65 | 9.3 ± 0.8 | more effective than 78c | –
O=C1NC(=S)S/C1=C\c1ccc2c(c1)OCCO2 [Compound 28] | > 100 | 93.9 ± 6.9 | – | –
O=C1NC(=S)S/C1=C\c1ccc2c(c1)-c1ccccc1C2 [Compound 31] | > 100 | 96.3 ± 6.8 | – | –
CS(=O)(=O)c1ccc(/C=C2\SC(=S)NC2=O)cc1 [Compound 21] | 11.5 | 22.1 ± 4 | – | –
O=C1NC(=S)S/C1=C\c1cc2cc3c(cc2nc1Cl)OCO3 [Compound 30] | 20.9 | 70.3 ± 40.7 | – | –
O=C1NC(=S)S/C1=C\c1ccc2ncccc2c1 [Compound 25] | 56 | 68.3 ± 18.2 | – | –
COc1ccc(-c2ccc(/C=C3\SC(=S)N(C)C3=O)cc2)cc1 [Compound 24] | > 100 | 90.1 ± 3.9 | – | –
Cc1ccc(-c2ccc(/C=C3\SC(=S)N(C)C3=O)cc2)cc1 [Compound 43] | 48.2 | 29 ± 18.8 | – | –
O=C1NC(=S)S/C1=C\c1ccc(OC(F)(F)F)cc1 [Compound 22] | 4.81 | 21.7 ± 8.1 | – | –
O=C1NC(=S)S/C1=C\c1ccc(-c2ccccc2)cc1 [Compound 40] | – | 22.1 ± 14.3 | – | –
O=C1NC(=S)S/C1=C\c1ccccc1OC(F)(F)F [Compound 42] | > 100 | 87.1 ± 3.4 | – | –
COc1ccc2cc(/C=C3\SC(=S)NC3=O)ccc2c1 [Compound 36] | > 100 | 90 ± 5.4 | – | –
O=C1NC(=S)S/C1=C\c1ccc(-c2ccccn2)cc1 [Compound 34] | 56 | 66.3 ± 23.4 | – | –
Cc1ccc(-c2ccc(/C=C3\SC(=S)NC3=O)cc2)cc1 [Compound 33] | 10 | 39.4 ± 4.9 | – | –
O=C1NC(=S)S/C1=C\c1ccc2oc3ccccc3c2c1 [Compound 26] | > 100 | 77.3 ± 22.4 | – | –
O=C1NC(=S)S/C1=C\c1ccccc1C(F)(F)F [Compound 41] | > 100 | 81.6 ± 2.4 | – | –
Cc1ccc(-c2ccc(/C=C3\SC(=O)NC3=O)cc2)cc1 [Compound 37] | > 100 | 84.5 ± 2.2 | – | –
Cc1ccc(-c2cccc(/C=C3\SC(=S)NC3=O)c2)cc1 [Compound 29] | > 100 | 98.6 ± 4.7 | – | –
O=C1NC(=S)S/C1=C\c1ccc(Oc2ccccc2)cc1 [Compound 27] | > 100 | 88.2 ± 0.6 | – | –
O=C1NC(=S)S/C1=C\c1ccc(-c2cccc(C(F)(F)F)c2)o1 [Compound 35] | > 100 | 81.7 ± 9 | – | –
O=c1cc(-c2ccc(O)cc2)oc2cc(O)cc(O)c12 [apigenin] | – | – | – | neither compound showed significant selectivity
O=C1NC(=S)S/C1=C\c1ccc(-c2ccc(C(F)(F)F)cc2)cc1 [Compound 32] | 3.15 | 64.5 ± 4.2 | more effective than 78c | –
COc1ccc(-c2ccc(/C=C3\SC(=S)NC3=O)cc2)cc1 [Compound 45] | 53.8 | 55.7 ± 2.3 | – | –
